Source: ChEMBL document CHEMBL1201862, “PubChem BioAssay data set” (2004)
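Results reflect a 48-hour exposure of cells in 96-well plates to compound at five concentrations. GI50 = concentration required for 50% inhibition of growth.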 Active and inactive are the calls of the source. No stated cut-off is given here; in the data, active = GI50 up to about 1.1 µM and inactive = higher.

Legend:
Test in all cases: NCI tumour cell line growth inhibition, 48 h
A498 = tested on: A498
ACHN = tested on: ACHN
HL-60 = tested on: HL-60
HT-29 = tested on: HT-29
Hs-578T = tested on: Hs-578T
K562 = tested on: K562
M14 = tested on: M14
MCF7 = tested on: MCF7
OVCAR-3 = tested on: OVCAR-3
OVCAR-5 = tested on: OVCAR-5
OVCAR-8 = tested on: OVCAR-8
PC-3 = tested on: PC-3
SF-295 = tested on: SF-295
SF-539 = tested on: SF-539
SK-MEL-28 = tested on: SK-MEL-28
SNB-19 = tested on: SNB-19
SR = tested on: SR
UACC-257 = tested on: UACC-257
UO-31 = tested on: UO-31
DMS-114 = tested on: DMS-114

Measured: GI50

NC(CSC1(c2ccc(Cl)cc2)c2ccccc2-c2ccccc21)C(=O)O (stereo unspecified)
inactive: A498 17.1 µM | ACHN 22.8 µM | HL-60 6.4 µM | HT-29 37.8 µM | Hs-578T 18.2 µM | K562 26.2 µM | M14 26.4 µM | MCF7 17.6 µM | OVCAR-3 17.4 µM | OVCAR-5 30.3 µM | OVCAR-8 17.7 µM | PC-3 18.3 µM | SF-295 15.3 µM | SF-539 20.9 µM | SK-MEL-28 > 100 µM | SNB-19 21.3 µM | SR 15.1 µM | UACC-257 15.9 µM | UO-31 28.7 µM

CCCC[C@H]1C(=O)O[C@H](C)[C@H](NC(=O)c2cccc(NC=O)c2OC)C(=O)O[C@@H](C)[C@@H]1OC(=O)C(C)CC.CCCC[C@H]1C(=O)O[C@H](C)[C@H](NC(=O)c2cccc(NC=O)c2OC)C(=O)O[C@@H](C)[C@@H]1OC(=O)CC(C)C (stereo partly specified)
inactive: A498 8.81 µM | ACHN 10.8 µM | HL-60 10.6 µM | HT-29 9.84 µM | Hs-578T 17.7 µM | K562 12.2 µM | M14 14.6 µM | MCF7 12.5 µM | OVCAR-3 10.2 µM | OVCAR-5 22.2 µM | OVCAR-8 12.9 µM | PC-3 9.42 µM | SF-295 7.45 µM | SF-539 15.8 µM | SK-MEL-28 21.6 µM | SNB-19 9.44 µM | SR 14.5 µM | UACC-257 12.1 µM | UO-31 14.8 µM

Cc1cccc(NC2=NC(=O)C(CC(=O)Nc3cccc(C)c3C)S2)c1 (stereo unspecified)
inactive: ACHN > 100 µM | DMS-114 63.5 µM | HL-60 35.9 µM | HT-29 > 100 µM | M14 > 100 µM | OVCAR-3 > 100 µM | OVCAR-5 > 100 µM | OVCAR-8 > 100 µM | SF-295 > 100 µM | SK-MEL-28 > 100 µM | SNB-19 > 100 µM | UACC-257 > 100 µM | UO-31 > 100 µM

CC(C)(C)OC(=O)NC(Cc1c[nH]cn1)C(=O)N1CCCC1C(N)=O (stereo unspecified)
inactive: A498 > 100 µM | ACHN > 100 µM | HL-60 > 100 µM | HT-29 > 100 µM | Hs-578T > 100 µM | K562 > 100 µM | M14 > 100 µM | MCF7 > 100 µM | OVCAR-3 > 100 µM | OVCAR-5 > 100 µM | OVCAR-8 > 100 µM | PC-3 > 100 µM | SF-295 > 100 µM | SF-539 > 100 µM | SK-MEL-28 > 100 µM | SNB-19 > 100 µM | SR > 100 µM | UACC-257 > 100 µM | UO-31 > 100 µM

O=c1c(Cl)c(Cl)c(=O)c2sc3cc(Cl)ccc3[nH]c1=2
inactive: A498 > 100 µM | ACHN 53.1 µM | HL-60 7.73 µM | HT-29 > 100 µM | Hs-578T 39 µM | K562 15.5 µM | M14 40.5 µM | MCF7 73.3 µM | OVCAR-3 15 µM | OVCAR-5 29.6 µM | OVCAR-8 14.5 µM | PC-3 32.6 µM | SF-295 70.8 µM | SF-539 43 µM | SK-MEL-28 > 100 µM | SNB-19 78.9 µM | SR 7.48 µM | UACC-257 15.3 µM | UO-31 18.2 µM

CC(=O)OCC1OC(n2c(=S)n(-c3ccccc3)c(=O)c3cc(Br)ccc32)C(OC(C)=O)C1OC(C)=O (stereo unspecified)
inactive: A498 > 100 µM | ACHN > 100 µM | DMS-114 99.8 µM | HT-29 > 100 µM | M14 > 100 µM | OVCAR-3 > 100 µM | OVCAR-5 > 100 µM | OVCAR-8 > 100 µM | SF-295 > 100 µM | SF-539 > 100 µM | SK-MEL-28 > 100 µM | SNB-19 > 100 µM | UACC-257 > 100 µM | UO-31 > 100 µM

CCC1(c2ccc(N3C(=O)c4cc(OC)c(OC)cc4C3=O)cc2)CCC(=O)NC1=O (stereo unspecified)
inactive: A498 > 10 µM | ACHN > 10 µM | HL-60 > 10 µM | HT-29 > 10 µM | Hs-578T > 10 µM | K562 > 10 µM | M14 > 10 µM | MCF7 > 10 µM | OVCAR-3 > 10 µM | OVCAR-5 > 10 µM | OVCAR-8 > 10 µM | PC-3 > 10 µM | SF-295 > 10 µM | SF-539 > 10 µM | SK-MEL-28 > 10 µM | SNB-19 > 10 µM | SR > 10 µM | UACC-257 > 10 µM | UO-31 > 10 µM

CC(=O)NC1C(O)C(O)C(CO)OC1n1nc(SCc2ccccc2)c(=O)[nH]c1=O (stereo unspecified)
inactive: A498 > 100 µM | ACHN > 100 µM | HL-60 > 100 µM | HT-29 > 100 µM | Hs-578T > 100 µM | K562 > 100 µM | M14 > 100 µM | MCF7 > 100 µM | OVCAR-3 > 100 µM | OVCAR-5 > 100 µM | OVCAR-8 > 100 µM | PC-3 > 100 µM | SF-295 > 100 µM | SF-539 > 100 µM | SK-MEL-28 > 100 µM | SNB-19 > 100 µM | SR > 100 µM | UACC-257 > 100 µM | UO-31 > 100 µM
